Test results taken from patent US20230265247A1, “PROCESS FOR PREPARING POLYIMIDES” (Technische Universität Wien, priority 2020, published 2023).

test: not given; details: salts of 1,2,3,4-butanetetracarboxylic acid; 1 ml distilled water with around 20 to 40% by weight of salt, stirred 15 minutes

Question: Which Salt is water-soluble does the source give for `Nc1n[nH]c(N)n1` [Example V38] here?
Answer: Its Salt is water-soluble is “no”.

Question: For `Nc1ccc(Cc2ccc(N)cc2)cc1` [Example V39], which Salt is water-soluble is on record?
Answer: The Salt is water-soluble was “no”.

Question: Which Salt is water-soluble does the source give for “Tricyclo[5.2.1.0^2,6]decane-3(4),8(9)-bis(methanammonium)-dihydrogen-1,2,3,4-butane-tetracarboxylate [Example B20]” here?
Answer: The Salt is water-soluble was “yes”.

same assay, conditions: salts of 1,2,3,4-cyclobutanetetracarboxylic acid; 1 ml distilled water with around 20 to 40% by weight of salt, stirred 15 minutes

Question: With `NCC1CC2CC1CC2CN.O=C(O)C1C(C(=O)O)C(C(=O)O)C1C(=O)O` (stereo not shown) [Example B21, Norbornane bis(methylammonium)-dihydrogen-1,2,3,4-cyclobutanetetracarboxylate] as the compound, how does the Salt is water-soluble read?
Answer: The Salt is water-soluble was “yes”.

Question: With `NCCCCN.O=C(O)C1C(C(=O)O)C(C(=O)O)C1C(=O)O` (stereo not shown) [Example V42] as the compound, how does the Salt is water-soluble read?
Answer: The Salt is water-soluble was “yes”.

Question: With `CC1(C)CC(N)CC(C)(CN)C1.O=C(O)C1C(C(=O)O)C(C(=O)O)C1C(=O)O` (stereo not shown) [Example V54] as the compound, how does the Salt is water-soluble read?
Answer: Its Salt is water-soluble is “yes”.

Question: For `NCc1cccc(CN)c1.O=C(O)C1C(C(=O)O)C(C(=O)O)C1C(=O)O` (stereo not shown) [Example V55], which Salt is water-soluble is on record?
Answer: Its Salt is water-soluble is “yes”.

Question: With “Tricyclo[5.2.1.0^2,6]decane-3(4),8(9)-bis(methanammonium)-dihydrogen-1,2,3,4-cyclobutanetetracarboxylate [Example B22]” as the compound, how does the Salt is water-soluble read?
Answer: Its Salt is water-soluble is “yes”.

same assay, conditions: salts of 1,2,3,4-cyclopentanetetracarboxylic acid; 1 ml distilled water with around 20 to 40% by weight of salt, stirred 15 minutes

Question: For `NCC1CC2CC1CC2CN.O=C(O)C1CC(C(=O)O)C(C(=O)O)C1C(=O)O` (stereo not shown) [Example B23, Norbornane bis(methylammonium)-dihydrogen-1,2,3,4-cyclopentanetetracarboxylate], which Salt is water-soluble is on record?
Answer: Its Salt is water-soluble is “yes”.

Question: With `NCCCCN.O=C(O)C1CC(C(=O)O)C(C(=O)O)C1C(=O)O` (stereo not shown) [Example V57] as the compound, how does the Salt is water-soluble read?
Answer: The Salt is water-soluble was “yes”.

Question: For `CC(CN)CCCN.O=C(O)C1CC(C(=O)O)C(C(=O)O)C1C(=O)O` (stereo not shown) [Example V60], which Salt is water-soluble is on record?
Answer: The Salt is water-soluble was “yes”.

Question: For `NCCCCCCCCCN.O=C(O)C1CC(C(=O)O)C(C(=O)O)C1C(=O)O` (stereo not shown) [Example V63], which Salt is water-soluble is on record?
Answer: Its Salt is water-soluble is “yes”.

Question: With `CC1(C)CC(N)CC(C)(CN)C1.O=C(O)C1CC(C(=O)O)C(C(=O)O)C1C(=O)O` (stereo not shown) [Example V69] as the compound, how does the Salt is water-soluble read?
Answer: The Salt is water-soluble was “yes”.

Question: Which Salt is water-soluble does the source give for “Tricyclo[5.2.1.0^2,6]decane-3(4),8(9)-bis(methanammonium)-dihydrogen-1,2,3,4-cyclopentanetetracarboxylate [Example B24]” here?
Answer: The Salt is water-soluble was “yes”.

same assay, conditions: salts of 1,2,4,5-cyclohexanetetracarboxylic acid; 1 ml distilled water with around 20 to 40% by weight of salt, stirred 15 minutes

Question: With `NCCCCN.O=C(O)C1CC(C(=O)O)C(C(=O)O)CC1C(=O)O` (stereo not shown) [Example V72] as the compound, how does the Salt is water-soluble read?
Answer: The Salt is water-soluble was “yes”.

Question: For `NCCCCCCCCCN.O=C(O)C1CC(C(=O)O)C(C(=O)O)CC1C(=O)O` (stereo not shown) [Example V78], which Salt is water-soluble is on record?
Answer: Its Salt is water-soluble is “yes”.

Question: For `CC1(C)CC(N)CC(C)(CN)C1.O=C(O)C1CC(C(=O)O)C(C(=O)O)CC1C(=O)O` (stereo not shown) [Example V84], which Salt is water-soluble is on record?
Answer: The Salt is water-soluble was “yes”.

Question: Which Salt is water-soluble does the source give for `NCc1cccc(CN)c1` [Example V85] here?
Answer: Its Salt is water-soluble is “yes”.

Question: For “Norbornane bis(methylammonium)-dihydrogen-1,2,4,5-cyclohexanetetracarboxylate [Example B25]”, which Salt is water-soluble is on record?
Answer: Its Salt is water-soluble is “yes”.

Question: With “Tricyclo[5.2.1.0^2,6]decane-3(4),8(9)-bis(methanammonium)-dihydrogen-1,2,4,5-cyclohexanetetracarboxylate [Example B26]” as the compound, how does the Salt is water-soluble read?
Answer: The Salt is water-soluble was “yes”.

same assay, conditions: salts of 3,3′,4,4′-benzophenonetetracarboxylic acid; 1 ml distilled water with around 20 to 40% by weight of salt, stirred 15 minutes

Question: With `NCCCCN.O=C(c1ccc(C(=O)O)c(C(=O)O)c1)c1ccc(C(=O)O)c(C(=O)O)c1` [Example V86] as the compound, how does the Salt is water-soluble read?
Answer: Its Salt is water-soluble is “no”.

Question: With `CC(C)(CN)CN.O=C(c1ccc(C(=O)O)c(C(=O)O)c1)c1ccc(C(=O)O)c(C(=O)O)c1` [Example V88] as the compound, how does the Salt is water-soluble read?
Answer: The Salt is water-soluble was “yes”.

Question: With `NCCCCCCCCCCCCN.O=C(c1ccc(C(=O)O)c(C(=O)O)c1)c1ccc(C(=O)O)c(C(=O)O)c1` [Example V94] as the compound, how does the Salt is water-soluble read?
Answer: Its Salt is water-soluble is “no”.

Question: For `CC1(C)CC(N)CC(C)(CN)C1.O=C(c1ccc(C(=O)O)c(C(=O)O)c1)c1ccc(C(=O)O)c(C(=O)O)c1` [Example V95], which Salt is water-soluble is on record?
Answer: The Salt is water-soluble was “yes”.

Question: For `CC1CC(CC2CCC(N)C(C)C2)CCC1N.O=C(c1ccc(C(=O)O)c(C(=O)O)c1)c1ccc(C(=O)O)c(C(=O)O)c1` [Example V97], which Salt is water-soluble is on record?
Answer: Its Salt is water-soluble is “yes”.

Question: With `Nc1cccc(N)n1` [Example V104] as the compound, how does the Salt is water-soluble read?
Answer: The Salt is water-soluble was “no”.

Question: Which Salt is water-soluble does the source give for “Norbornane bis(methylammonium)-dihydrogen-3,3′,4,4′-benzophenonetetracarboxylate [Example B27]” here?
Answer: Its Salt is water-soluble is “yes”.

Question: With “Tricyclo[5.2.1.0^2,6]decane-3(4),8(9)-bis(methanammonium)-dihydrogen-3,3′,4,4′-benzophenonetetracarboxylate [Example B28]” as the compound, how does the Salt is water-soluble read?
Answer: Its Salt is water-soluble is “yes”.

same assay, conditions: salts of tetrahydrofuran-2,3,4,5-tetracarboxylic acid; 1 ml distilled water with around 20 to 40% by weight of salt, stirred 15 minutes; no = no clear solution

Question: Which Salt is water-soluble does the source give for `NCCCCN.O=C(O)C1OC(C(=O)O)C(C(=O)O)C1C(=O)O` (stereo not shown) [Example B2, Butane-1,4-diammonium-dihydrogen-tetrahydrofuran-2,3,4,5-tetracarboxylate] here?
Answer: The Salt is water-soluble was “yes”.

Question: For `NCCCCCN.O=C(O)C1OC(C(=O)O)C(C(=O)O)C1C(=O)O` (stereo not shown) [Example B3, Pentane-1,5-diammonium-dihydrogen-tetrahydrofuran-2,3,4,5-tetracarboxylate], which Salt is water-soluble is on record?
Answer: Its Salt is water-soluble is “yes”.

Question: For `CC(C)(CN)CN.O=C(O)C1OC(C(=O)O)C(C(=O)O)C1C(=O)O` (stereo not shown) [Example B4, 2,2-Dimethylpropane-1,3-diammonium-dihydrogen-tetrahydrofuran-2,3,4,5-tetracarboxylate], which Salt is water-soluble is on record?
Answer: The Salt is water-soluble was “yes”.

Question: Which Salt is water-soluble does the source give for `CC(CN)CCCN.O=C(O)C1OC(C(=O)O)C(C(=O)O)C1C(=O)O` (stereo not shown) [Example B6, 2-Methylpentane-1,5-diammonium-dihydrogen-tetrahydrofuran-2,3,4,5-tetracarboxylate] here?
Answer: The Salt is water-soluble was “yes”.

Question: With `NCCCCCCCN.O=C(O)C1OC(C(=O)O)C(C(=O)O)C1C(=O)O` (stereo not shown) [Example B7, Heptane-1,7-diammonium-dihydrogen-tetrahydrofuran-2,3,4,5-tetracarboxylate] as the compound, how does the Salt is water-soluble read?
Answer: Its Salt is water-soluble is “yes”.

Question: For `NCCCCCCCCN.O=C(O)C1OC(C(=O)O)C(C(=O)O)C1C(=O)O` (stereo not shown) [Example B8, Octane-1,8-diammonium-dihydrogen-tetrahydrofuran-2,3,4,5-tetracarboxylate], which Salt is water-soluble is on record?
Answer: The Salt is water-soluble was “yes”.

Question: For `NCCCCCCCCCN.O=C(O)C1OC(C(=O)O)C(C(=O)O)C1C(=O)O` (stereo not shown) [Example B9, Nonane-1,9-diammonium-dihydrogen-tetrahydrofuran-2,3,4,5-tetracarboxylate], which Salt is water-soluble is on record?
Answer: The Salt is water-soluble was “yes”.

Question: With `NC1CCCC(N)C1.O=C(O)C1OC(C(=O)O)C(C(=O)O)C1C(=O)O` (stereo not shown) [Example B11, Cyclohexane-1,3-diammonium-dihydrogen-tetrahydrofuran-2,3,4,5-tetracarboxylate] as the compound, how does the Salt is water-soluble read?
Answer: The Salt is water-soluble was “yes”.

Question: With `NC1CCC(N)CC1.O=C(O)C1OC(C(=O)O)C(C(=O)O)C1C(=O)O` (stereo not shown) [Example B12, Cyclohexane-1,4-diammonium-dihydrogen-tetrahydrofuran-2,3,4,5-tetracarboxylate] as the compound, how does the Salt is water-soluble read?
Answer: Its Salt is water-soluble is “yes”.

Question: For `NCC1CCCC(CN)C1.O=C(O)C1OC(C(=O)O)C(C(=O)O)C1C(=O)O` (stereo not shown) [Example B13, Cyclohexane-1,3-bis(methanammonium)-dihydrogen-tetrahydrofuran-2,3,4,5-tetracarboxylate], which Salt is water-soluble is on record?
Answer: Its Salt is water-soluble is “yes”.

Question: Which Salt is water-soluble does the source give for `NCC1CCC(CN)CC1.O=C(O)C1OC(C(=O)O)C(C(=O)O)C1C(=O)O` (stereo not shown) [Example B14, Cyclohexane-1,4-bis(methanammonium)-dihydrogen-tetrahydrofuran-2,3,4,5-tetracarboxylate] here?
Answer: Its Salt is water-soluble is “yes”.

Question: With `CC1(C)CC(N)CC(C)(CN)C1.O=C(O)C1OC(C(=O)O)C(C(=O)O)C1C(=O)O` (stereo not shown) [Example B16, Isophorone diammonium-dihydrogen-tetrahydrofuran-2,3,4,5-tetracarboxylate] as the compound, how does the Salt is water-soluble read?
Answer: Its Salt is water-soluble is “yes”.

Question: Which Salt is water-soluble does the source give for `CC1CC(CC2CCC(N)C(C)C2)CCC1N.O=C(O)C1OC(C(=O)O)C(C(=O)O)C1C(=O)O` (stereo not shown) [Example B18, 4,4′-Methylene-bis(2-methylcyclohexylammonium)-dihydrogen-tetrahydrofuran-2,3,4,5-tetracarboxylate] here?
Answer: The Salt is water-soluble was “yes”.

Question: With `NC1CCC(CC2CCC(N)CC2)CC1.O=C(O)C1OC(C(=O)O)C(C(=O)O)C1C(=O)O` (stereo not shown) [Example V2] as the compound, how does the Salt is water-soluble read?
Answer: Its Salt is water-soluble is “no”.

Question: Which Salt is water-soluble does the source give for `Cc1ccc(N)cc1N` [Example V7] here?
Answer: Its Salt is water-soluble is “no”.

Question: With `Nc1cccc(N)n1.O=C(O)C1OC(C(=O)O)C(C(=O)O)C1C(=O)O` (stereo not shown) [Example V9] as the compound, how does the Salt is water-soluble read?
Answer: The Salt is water-soluble was “no”.

Question: With `Nc1ccc(Cc2ccc(N)cc2)cc1.O=C(O)C1OC(C(=O)O)C(C(=O)O)C1C(=O)O` (stereo not shown) [Example V11] as the compound, how does the Salt is water-soluble read?
Answer: The Salt is water-soluble was “no”.

Question: With `Cc1cc(-c2ccc(N)c(C)c2)ccc1N` [Example V12] as the compound, how does the Salt is water-soluble read?
Answer: The Salt is water-soluble was “no”.

test: Water solubility of the diamines, literature values; type: physicochemical; details: ratio of cited solubilities

Question: For `CC1CC(CC2CCC(N)C(C)C2)CCC1N` (stereo not shown) [4,4′-methylene-bis(2-methylcyclohexylamine)], which “water solubility less by a factor, versus 4,4′-methylene-bis(cyclohexylamine)” value is on record?
Answer: The value was 45.

test: not given; details: according to perflavory.com; cited from earlier work

Question: For `CC1CC(CC2CCC(N)C(C)C2)CCC1N` (stereo not shown) [4,4′-methylene-bis(2-methylcyclohexylamine)], which “water solubility of the diamine” value is on record?
Answer: The value was “around 88 mg/l”.

same assay, conditions: cited in Wikipedia; cited from earlier work

Question: Which “water solubility of the diamine” value does the source give for `NC1CCC(CC2CCC(N)CC2)CC1` (stereo not shown) [4,4′-methylene-bis(cyclohexylamine)] here?
Answer: The value was “about 4 g/l”.
